Results taken from the supplement of paper PMC11061612.

Assays:
Assay in all cases: combination Emax (second highest fraction inhibited in the dose matrix, 72 h); higher = more inhibition; extreme values may be limits of the assay
ES6 (Ewing's Sarcoma) = tested on: ES6 (Ewing's Sarcoma)
In short: (§1)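 Bliss excess equals the observed combination effect minus the expected value EA + EB − EA·EB, where EA and EB are the effects of each agent alone. Combination Emax is the second-highest inhibition within the matrix. Inhibition was scaled from CellTiter-Glo 2.0 luminescence, with 0 set by vehicle wells and 1 by blank wells, after 72 hours of two-drug dosing of cells plated in 1536-well plates.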

[1] = tested on: ZR-75-30 (Breast Carcinoma)
In short: as §1

[2] = tested on: RCC-JW (Kidney Carcinoma)
In short: as §1

[3] = tested on: LCLC-103H (Non-Small Cell Lung Carcinoma)
In short: as §1

[4] = tested on: IA-LM (Non-Small Cell Lung Carcinoma)
In short: as §1

[5] = tested on: MDA-MB-415 (Breast Carcinoma)
In short: as §1

[6] = tested on: NCI-H3118 (Head and Neck Carcinoma)
In short: as §1

[7] = tested on: SNU-423 (Hepatocellular Carcinoma)
In short: as §1

[8] = tested on: COR-L88 (Small Cell Lung Carcinoma)
In short: as §1

[9] = tested on: BxPC-3 (Pancreatic Carcinoma)
In short: as §1

GAK (Melanoma) = tested on: GAK (Melanoma)
In short: as §1

[10] = tested on: MS-1 (Small Cell Lung Carcinoma)
In short: as §1

[11] = tested on: SKG-IIIa (Cervical Carcinoma)
In short: as §1

[12] = tested on: HPAF-II (Pancreatic Carcinoma)
In short: as §1

[13] = tested on: NAMALWA (Burkitt's Lymphoma)
In short: as §1

[14] = tested on: T84 (Colorectal Carcinoma)
In short: as §1

IST-MEL1 (Melanoma) = tested on: IST-MEL1 (Melanoma)
In short: as §1

[15] = tested on: C-33-A (Cervical Carcinoma)
In short: as §1

KALS-1 (Glioblastoma) = tested on: KALS-1 (Glioblastoma)
In short: as §1

[16] = tested on: MONO-MAC-6 (Acute Myeloid Leukemia)
In short: as §1

Compound	combination Emax (ES6 (Ewing's Sarcoma))	combination Emax [1]	combination Emax [2]	combination Emax [3]	combination Emax [4]	combination Emax [5]	combination Emax [6]	combination Emax [7]	combination Emax [8]	combination Emax [9]	combination Emax (GAK (Melanoma))	combination Emax [10]	combination Emax [11]	combination Emax [12]	combination Emax [13]	combination Emax [14]	combination Emax (IST-MEL1 (Melanoma))	combination Emax [15]	combination Emax (KALS-1 (Glioblastoma))	combination Emax [16]
C=CCn1c(=O)c2cnc(Nc3ccc(N4CCN(C)CC4)cc3)nc2n1-c1cccc(C(C)(C)O)n1 [AZD1775] + CCc1c2c(nc3ccc(O)cc13)-c1cc3c(c(=O)n1C2)COC(=O)[C@]3(O)CC [SN-38] (first compound max 1 µM, partner max 0.3 µM)	0.607	0.137	0.542	0.709	0.67	0.469	0.9	0.598	0.671	0.562	0.678	0.86	0.725	0.597	1	0.867	0.825	0.997	0.965	1
C=CCn1c(=O)c2cnc(Nc3ccc(N4CCN(C)CC4)cc3)nc2n1-c1cccc(C(C)(C)O)n1 [AZD1775] + Nc1ccn([C@@H]2O[C@H](CO)[C@@H](O)C2(F)F)c(=O)n1 [Gemcitabine] (first compound max 1 µM, partner max 0.3 µM)	0.556	0.24	0.819	0.753	0.287	0.58	0.872	0.655	0.65	0.554	0.612	0.838	0.643	0.551	1	0.85	0.662	0.996	0.929	1
CN(CCO)CC[C@H](CSc1ccccc1)Nc1ccc(S(=O)(=O)NC(=O)c2ccc(N3CCC([C@@H](O)c4ccccc4-c4ccc(Cl)cc4)CC3)cc2)cc1S(=O)(=O)C(F)(F)F [AZD4320] + CC(=O)O[C@H]1C(=O)[C@@]2(C)[C@H]([C@H](OC(=O)c3ccccc3)[C@]3(O)C[C@H](OC(=O)[C@H](O)[C@@H](NC(=O)c4ccccc4)c4ccccc4)C(C)=C1C3(C)C)[C@]1(OC(C)=O)CO[C@@H]1C[C@@H]2O [Paclitaxel] (first compound max 1 µM, 7x7, partner max 3 µM)	0.779	0.326	0.952	0.985	0.833	0.923	0.978	0.959	0.997	0.928	0.709	0.971	0.905	0.955	1	0.726	0.977	0.989	0.984	1
CN(CCO)CC[C@H](CSc1ccccc1)Nc1ccc(S(=O)(=O)NC(=O)c2ccc(N3CCC([C@@H](O)c4ccccc4-c4ccc(Cl)cc4)CC3)cc2)cc1S(=O)(=O)C(F)(F)F [AZD4320] + CS(=O)(=O)CCNCc1ccc(-c2ccc3ncnc(Nc4ccc(OCc5cccc(F)c5)c(Cl)c4)c3c2)o1 [Lapatinib] (first compound max 1 µM, 7x7, partner max 10 µM)	0.971	0.957	1	0.488	0.539	0.917	0.561	0.91	0.986	0.486	0.272	0.971	0.479	0.984	0.373	0.886	0.364	0.476	0.422	0.885
CN(CCO)CC[C@H](CSc1ccccc1)Nc1ccc(S(=O)(=O)NC(=O)c2ccc(N3CCC([C@@H](O)c4ccccc4-c4ccc(Cl)cc4)CC3)cc2)cc1S(=O)(=O)C(F)(F)F [AZD4320] + Nc1ccn([C@@H]2O[C@H](CO)[C@@H](O)C2(F)F)c(=O)n1 [Gemcitabine] (first compound max 1 µM, 7x7, partner max 0.3 µM)	0.824	0.216	0.965	0.681	0.594	0.637	0.752	0.605	0.947	0.577	0.583	0.78	0.475	0.759	0.99	0.508	–	0.796	0.595	1
Cc1c2c(nn1C)CSCc1cc(n(C)n1)CSc1cc(c3ccccc3c1)OCCCc1c(C(=O)O)n(C)c3c-2c(Cl)ccc13 [AZD5991] + CC(=O)O[C@H]1C(=O)[C@@]2(C)[C@H]([C@H](OC(=O)c3ccccc3)[C@]3(O)C[C@H](OC(=O)[C@H](O)[C@@H](NC(=O)c4ccccc4)c4ccccc4)C(C)=C1C3(C)C)[C@]1(OC(C)=O)CO[C@@H]1C[C@@H]2O [Paclitaxel] (first compound max 1 µM, 7x7, partner max 3 µM)	0.312	0.441	0.737	0.91	0.199	0.838	0.973	0.672	0.515	0.686	0.548	0.867	0.487	0.53	1	0.701	0.587	0.912	0.951	1
Cc1c2c(nn1C)CSCc1cc(n(C)n1)CSc1cc(c3ccccc3c1)OCCCc1c(C(=O)O)n(C)c3c-2c(Cl)ccc13 [AZD5991] + CS(=O)(=O)CCNCc1ccc(-c2ccc3ncnc(Nc4ccc(OCc5cccc(F)c5)c(Cl)c4)c3c2)o1 [Lapatinib] (first compound max 1 µM, 7x7, partner max 10 µM)	0.515	0.974	0.981	0.2	0.297	0.558	0.723	0.289	0.305	0.483	0.352	0.535	0.456	0.213	0.977	0.469	0.295	0.514	0.332	1
Cc1c2c(nn1C)CSCc1cc(n(C)n1)CSc1cc(c3ccccc3c1)OCCCc1c(C(=O)O)n(C)c3c-2c(Cl)ccc13 [AZD5991] + Nc1ccn([C@@H]2O[C@H](CO)[C@@H](O)C2(F)F)c(=O)n1 [Gemcitabine] (first compound max 1 µM, 7x7, partner max 0.3 µM)	0.529	0.36	0.828	0.513	0.261	0.526	0.818	0.43	0.485	0.47	0.473	0.722	0.332	0.268	1	0.521	0.606	0.895	0.542	1
C[C@@H]1COCCN1c1cc(C2([S@](C)(=N)=O)CC2)nc(-c2ccnc3[nH]ccc23)n1 [AZD6738] + C1CC(C1)(C(=O)[O-])C(=O)[O-].N.N.[Pt+2] [Carboplatin] (first compound max 10 µM, 7x7, partner max 10 µM)	–	0.262	0.51	0.385	0.171	0.549	0.61	0.39	0.299	0.349	0.491	0.659	0.407	0.36	0.896	0.731	0.679	–	0.802	0.858
C[C@@H]1COCCN1c1cc(C2([S@](C)(=N)=O)CC2)nc(-c2ccnc3[nH]ccc23)n1 [AZD6738] + Nc1ccn([C@@H]2O[C@H](CO)[C@@H](O)C2(F)F)c(=O)n1 [Gemcitabine] (first compound max 10 µM, 7x7, partner max 0.3 µM)	0.731	0.269	0.877	0.794	0.462	0.642	0.846	0.724	0.756	0.63	0.503	0.961	0.623	0.577	1	0.793	0.768	0.969	0.896	1
Cc1cc2ncnn2cc1Nc1ncc2c(n1)n(C1CCOCC1)c(=O)n2C [AZD7648] + COc1cc([C@@H]2c3cc4c(cc3[C@@H](O[C@@H]3O[C@@H]5CO[C@@H](C)O[C@H]5[C@H](O)[C@H]3O)[C@H]3COC(=O)[C@H]23)OCO4)cc(OC)c1O [Etoposide] (first compound max 10 µM, 7x7, partner max 10 µM)	0.36	0.258	0.56	0.584	0.28	0.483	0.768	0.555	0.36	0.223	0.525	0.842	0.551	0.199	0.985	0.398	0.638	0.945	0.787	1
C[C@@H](Nc1cc(F)cc(F)c1)c1cc(C(=O)N(C)C)cc2c(=O)cc(N3CCOCC3)oc12 [AZD8186] + C1CN(CCC1(C(=O)N[C@@H](CCO)C2=CC=C(C=C2)Cl)N)C3=NC=NC4=C3C=CN4 [AZD5363] (first compound max 10 µM, 7x7, partner max 10 µM)	0.365	0.441	0.537	0.417	0.215	0.834	0.519	0.416	0.171	0.323	0.261	0.223	0.303	0.249	0.485	0.337	0.408	0.589	0.398	0.547
